Data on 5 compounds can be found in US5015661A, “Chromanes and their pharmaceutical compositions and methods” (Hoffmann-La Roche Inc., priority 1989, dated 1991).

Where a name gives a salt, the structure may show the parent alone.

The target of the assay is T1, Δ^5 -lipoxygenase from rat basophilic leukemia (RBL-1) cells (Rattus norvegicus, UniProt P12527).
T1 construct: endogenous in cells; host or cells: RBL-1 rat basophilic leukemia cells (ATCC CRL 1378); 113,000×g supernatant (cytosolic fraction)
T1 sequence (P12527 1-673): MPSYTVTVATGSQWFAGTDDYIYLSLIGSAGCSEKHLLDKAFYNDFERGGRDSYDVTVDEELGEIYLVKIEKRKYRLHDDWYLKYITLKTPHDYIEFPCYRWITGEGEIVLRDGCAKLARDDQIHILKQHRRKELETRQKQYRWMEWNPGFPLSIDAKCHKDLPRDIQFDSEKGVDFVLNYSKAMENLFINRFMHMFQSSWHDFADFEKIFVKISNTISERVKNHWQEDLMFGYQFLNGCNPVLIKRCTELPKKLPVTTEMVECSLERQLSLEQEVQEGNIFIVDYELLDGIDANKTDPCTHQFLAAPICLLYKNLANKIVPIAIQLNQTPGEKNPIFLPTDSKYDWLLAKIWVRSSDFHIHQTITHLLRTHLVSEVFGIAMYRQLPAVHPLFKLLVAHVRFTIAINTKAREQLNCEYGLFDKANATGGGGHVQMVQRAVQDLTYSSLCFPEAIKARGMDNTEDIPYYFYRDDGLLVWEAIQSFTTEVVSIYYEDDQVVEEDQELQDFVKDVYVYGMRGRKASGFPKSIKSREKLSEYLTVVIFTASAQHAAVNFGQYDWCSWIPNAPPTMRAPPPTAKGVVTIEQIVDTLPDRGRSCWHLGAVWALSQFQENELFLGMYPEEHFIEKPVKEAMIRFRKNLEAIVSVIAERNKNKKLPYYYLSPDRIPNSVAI
Briefly: In vitro test for Δ^5 -lipoxygenase inhibitors (5-LO), RBL-1 cell enzyme, 5-HETE radioimmunoassay. The assay is classed as biochemical. The settings on record: RBL-1 5-LO; 10 min preincubation; 8.25 μM arachidonic acid, 10 min at 37° C.; 5-HETE formation; read-out: 5-LO IC-50. On the procedure: IN VITRO TEST FOR Δ^5 -LIPOXYGENASE INHIBITORS Compounds of formula I of the invention were tested for their effect on Δ^5 -lipoxygenase from rat basophilic leukemia (RBL-1) cells. Materials. RBL-1 cells (CRL 1378) were obtained from the American TYpe Culture Collection, Rockville, MD. DMEM and glutamine were purchased from Flow Labs, McLean, VA. FBS (Gibco, Grand Island, NY) was heat-inactivated for 1 hour at 56° C. Reagents for protein determinations were obtained from Biorad, Rockville Center, NY. Arachidonic acid (approx. 99%), ATP (disodium slat), BHT, dextran (clinical grade), tetrasodium EDTA, gelatin, gentamycin sulfate solution, reduced glutathione, 1 M HEPES buffer, indomethacin, NaCl, reduced NADpH, Trizma 7.2, and Trizma 8.5 were purchased from Sigma Chemical, St. Louis, MO. CaCl2 dihydrate, Norit A charcoal, and citric acid monohydrate were obtained from Fisher Scientific, Pittsburgh, PA. […] MA. A synthetic 5-HETE standard was supplied by Dr. M. Rosenberger, Dept. of Medicinal Chemistry, Hoffmann-La Roche, Nutley, NJ; [see Corey, E.J., and Hashimoto, S. (1981 ) Tet. Letters, 22, 299-302 for method of preparation]. Ecoscint liquid sointillation fluid was purchased from National Diagnostics, Sommerville, NJ. Isolation of 5-lipoxygenase. […] Approximately 7-9 days after thawing, RBL-1 cells growing in log phase were seeded at a density of 7500 viable cells/ml in a closed 89-liter spinner flask. The cells were stirred constantly for 3-4 days at 37° C. until they reached a density greater than 500,000/ml but less than 800,00/ml. RBL-1 cells were harvested by centrifugation at 4° C. at 1500×g for 10 minutes and were washed 3 times with ice cold 0.05 M tris-HCl, pH 7.2, tetrasodium EDTA (buffer 1). The cells were washed last in 0.05 M Tris-HCl containing 14 μM indomethacin, 1 mM glutathione, 1.5 mM NaCl, and 1 mM tetrasodium EDTA (buffer 2), resuspended at a density of 5×108'/ml (approximately 10 ml) and disrupted manually at 4° C. using a 40 ml Dounce (type A pestle) homogenizer. After 5 minutes of homogenization. 95% cell lysis was confirmed by phase contrast microscopy. The broken cells were diluted 1:2 with buffer 2 and centrifuged at 12,380×g for 10 minutes at 4° C. to pellet cellular debris and granules. The 12,380×g supernatant was centrifuged at 113,000×g for 60 minutes to pellet microsomes. The high-speed supernatant (5.9±0.48 mg/ml protein) was frozen immediately in 1 ml aliquots using a dry ice/acetone bath. The isolated cytosolic fraction was stored in liquid N2 for up to 8 weeks without loss of 5-LO enzyme activity. Lipoxygenase Assay. Compounds Were dissolved at 25 mM concentration in DMSO, then diluted to final concentrations using 95% ethanol. For a typical enzyme assay, the partially purified 5-LO preparation was preincubated with drug or vehicle for 10 minutes at 30° C. The assay tubes were then transferred at a 37° C. water bath where they received arachidonic acid (8.25 μM final concentration) to initiate 5-LO activity. In addition to enzyme and substrate, each reaction tube contained: 12.5 μmoles of Tris-HCl (pH 7.2), 25 nmoles glutathione, 0.35 nmoles indomethacin and 1.25 μmoles of CaCl2 and ATP to yield a total of volume of 250 μl. The enzyme reaction was terminated after 10 minutes by the addition of 75μl […] citric acid to yield pH 3.5. The samples were immediately cooled on ice and neutralized by dilution with 0.05 M Tris-HCl, pH 8.5, which contained 25 mg/1 BHT. A boiled cytosol control was placed at the end of each assay to measure non-enzymatic oxidation of arachidonic acid. The mean specific activity of the 5-LO enzyme preparation was approximately 66.16±14.39 pmol 5-HETE/min/mg protein. Radioimmunoassay for 5-HETE. Under the assay conditions described, the 5-LO catalyzed the conversion of arachidonic acid to 5-HPETE which, as a consequence o peroxidase activity, was reduced to 5-HETE. A specific radioimmunoassay was employed to quantitate the amount (pmoles) of 5-HETE formed during the enzyme reaction. […]
For the compound `Cc1c(C)c2c(c(C)c1O)CCC(C)(C#Cc1ccccc1NC(=O)C(F)(F)F)O2` (racemic) [Example 44, rac-2,2,2-Trifluoro-N-{2-[(3,4-dihydro-6-hydroxy-2,5,7,8-tetramethyl-2H-1-benzopyran-2-yl)ethynyl]phenyl}acetamide], the IC50 was 10 nM. With `Cc1c(C)c2c(c(C)c1O)CCC(C)(C#Cc1ccc3c(c1)N(C(=O)C(F)(F)F)CCO3)O2` (racemic) [Example 45, rac-3,4-Dihydro-6-[(3,4-dihydro-6-hydroxy-2,5,7,8-tetramethyl2H-1-benzopyran-2-yl)ethynyl]-4(trifluoroacetyl)-2H-1,4-benzoxazine] the figure was 45 nM; with `Cc1c(C)c2c(c(C)c1O)CCC(C)(C#Cc1ccc3c(c1)NCCO3)O2` (racemic) [Example 47, rac-2-[(3,4-dihydro-2H-1,4-benzoxazine-6-yl)ethynyl]-3,4-dihydro-2,5,7,8-tetramethyl-2H-1-benzopyran-6-ol hydrochloride], 18 nM; with `CC(=O)Oc1cc(CCC2(C)CCc3c(C)c(O)c(C)c(C)c3O2)ccc1O` (racemic) [Example 67, rac-4-[2-(3,4-Dihydro-6-hydroxy-2,5,7,8-tetramethyl-2H-1-benzopyran-2-yl)ethyl]-1,2-benzenediol-2-acetate], 38 nM. For the compound `COc1cc(CN)cc(CCC2(C)CCc3c(C)c(O)c(C)c(C)c3O2)c1O` (racemic) [Example 68, rac-{2-[5-(Aminomethyl)-2-hydroxy-3-methoxyphenyl]ethyl}-3,4-dihydro-2,5,7,8-tetramethyl-2H-1-benzopyran-6-ol hydrochloride], the IC50 was determined as 70 nM.
